Measurements published in patent publication US4196217A, “Hydroxylated amines with bacteriostatic activity” (priority 1978, dated 1980).
In brackets after ≈: the same amount, converted by molar mass. Several values for one entry are separate records, joined by “and”; a condition that tells them apart may be missing. Equal values may be shown once. Where a name gives a salt, the structure may show the parent alone. Read-outs that look alike come from different tables or passages of the source.

Columns and labels:
[1] = system: Escherichia coli; assay: bacteriostatic activity (MIC), Escherichia coli; assay type: cell-based
Method: (§1) The medium containing the solution to be tested is inoculated in the form of three single striae with a 10^-5 times dilution of a bacterial culture aged 16 to 18 hours grown in salted peptone broth at a temperature of 37° C.
(§2) After inoculation, the media are stored at 37° C. for 48 hours, after which the bacterial growth is inspected. The MIC (minimum inhibiting concentrations) are expressed in micrograms of pure product per cubic centimeter of gelose medium required for inhibiting the culture (μg/cc). The control substance used is benzalconium chloride.
(§3) Tests were also carried out to determine the bacteriostatic activity of other compounds according to the invention by the method described above and in comparison with known substances, in particular with benzalconium chloride (compound T in the Tables).

[2] = system: Pseudomonas aeruginosa; assay: bacteriostatic activity (MIC), Pseudomonas aeruginosa; assay type: cell-based
Method: as §1, §2, §3

[3] = system: Staphyloccus aureus; assay: bacteriostatic activity (MIC), Staphylococcus aureus; assay type: cell-based
Method: as §1, §2, §3

[4] = system: Bacillus subtilis; assay: bacteriostatic activity (MIC), Bacillus subtilis; assay type: cell-based
Method: as §1, §2, §3

[5] = solubility
[6] = system: Enterbacter cloacae; assay: bacteriostatic activity (MIC), Enterbacter cloacae; assay type: cell-based; details: Table I, 37° C., 48 hours
Method: as §2, with “The medium containing the solution to be tested is inoculated in the form of three single striae with a 10^-5 times dilution of a bacterial culture aged 16 to 18 hours grown in salted peptone broth at a temperature of 37° C. After” for “After”

[7] = system: Proteus vulgaris; assay: bacteriostatic activity (MIC), Proteus vulgaris; assay type: cell-based; details: Table I, 37° C., 48 hours
Method: as §2, with “The medium containing the solution to be tested is inoculated in the form of three single striae with a 10^-5 times dilution of a bacterial culture aged 16 to 18 hours grown in salted peptone broth at a temperature of 37° C. After” for “After”

[8] = system: Pneumobacille; assay: bacteriostatic activity (MIC), Pneumobacille; assay type: cell-based; details: Table I, 37° C., 48 hours
Method: as §2, with “The medium containing the solution to be tested is inoculated in the form of three single striae with a 10^-5 times dilution of a bacterial culture aged 16 to 18 hours grown in salted peptone broth at a temperature of 37° C. After” for “After”

[9] = system: Moraxella glucidolytica; assay: bacteriostatic activity (MIC), Moraxella glucidolytica; assay type: cell-based; details: Table I, 37° C., 48 hours
Method: as §2, with “The medium containing the solution to be tested is inoculated in the form of three single striae with a 10^-5 times dilution of a bacterial culture aged 16 to 18 hours grown in salted peptone broth at a temperature of 37° C. After” for “After”

[10] = system: Serratia; assay: bacteriostatic activity (MIC), Serratia; assay type: cell-based; details: Table I, 37° C., 48 hours
Method: as §2, with “The medium containing the solution to be tested is inoculated in the form of three single striae with a 10^-5 times dilution of a bacterial culture aged 16 to 18 hours grown in salted peptone broth at a temperature of 37° C. After” for “After”

[11] = Escherichia coli, 48 h, Table VI, bacteriostase containing 20% of serum, read-out: M.I.C.
[12] = Escherichia coli, 48 h, Table VI, bacteriostase without serum, read-out: M.I.C.
[13] = Pseudomonas aeruginosa, 48 h, Table VI, bacteriostase containing 20% of serum, read-out: M.I.C.
[14] = Pseudomonas aeruginosa, 48 h, Table VI, bacteriostase without serum, read-out: M.I.C.
[15] = Staphylococcus aureus, 48 h, Table VI, bacteriostase containing 20% of serum, read-out: M.I.C.
[16] = Staphylococcus aureus, 48 h, Table VI, bacteriostase without serum, read-out: M.I.C.
[17] = Bacillus subtilis, 48 h, Table VI, bacteriostase containing 20% of serum, read-out: M.I.C.
[18] = Bacillus subtilis, 48 h, Table VI, bacteriostase without serum, read-out: M.I.C.
[19] = Table I, with 20% of serum, 37° C., 48 hours
[20] = Table I, without serum, 37° C., 48 hours
[21] = Table VI, bacteriostase containing 20% of serum
[22] = Table VI, bacteriostase without serum

## CCCCCCCCCCCCOCC(O)CN.Cl (stereo not shown) [Compound 2, 3-dodecyloxy-2-hydroxy-1-aminopropane hydrochloride]
[1]; [11]
  MIC: 100 µg/mL
[1]; [12]
  MIC: 20 µg/mL
[2]; [13]
  MIC: 1200 µg/mL
[2]; [14]
  MIC: 800 µg/mL
[3]; [15]
  MIC: 75 µg/mL
[3]; [16]
  MIC: 10 µg/mL
[4]; [17]
  MIC: 30 µg/mL
[4]; [18]
  MIC: 5 µg/mL

## Br.CCCCCCCCCCOCC(O)CN (stereo not shown) [Compound 3, 3-decyloxy-2-hydroxy-1-aminopropane hydrobromide]
[1]; [11]
  MIC: 60 µg/mL
[1]; [12]
  MIC: 30 µg/mL
[2]; [13]
  MIC: 250 µg/mL
[2]; [14]
  MIC: 100 µg/mL
[3]; [15]
  MIC: 75 µg/mL
[3]; [16]
  MIC: 30 µg/mL
[4]; [17]
  MIC: 50 µg/mL
[4]; [18]
  MIC: 25 µg/mL

## CCCCCCCCC(O)CN (stereo not shown) [Compound 4]
[1]; [11]
  MIC: 200 µg/mL (≈ 1150 µM)
[1]; [12]
  MIC: 125 µg/mL (≈ 721 µM)
[2]; [13]
  MIC: 500 µg/mL (≈ 2890 µM)
[2]; [14]
  MIC: 400 µg/mL (≈ 2310 µM)
[3]; [15]
  MIC: 150 µg/mL (≈ 866 µM)
[3]; [16]
  MIC: 70 µg/mL (≈ 404 µM)
[4]; [17]
  MIC: 75 µg/mL (≈ 433 µM)
[4]; [18]
  MIC: 20 µg/mL (≈ 115 µM)

## CCCCCCCCCCOCC(O)C[N+](C)(C)C (stereo not shown) [Compound 5, 3-decyloxy-2-hydroxy-N,N,N-trimethyl-1-ammonium chloride]
[5]
  solubility in water: soluble in water
[1]; [11]
  MIC: 200 µg/mL
[1]; [12]
  MIC: 125 µg/mL
[2]; [13]
  MIC: 750 µg/mL
[2]; [14]
  MIC: 600 µg/mL
[3]; [15]
  MIC: 50 µg/mL
[3]; [16]
  MIC: 25 µg/mL
[4]; [17]
  MIC: 40 µg/mL
[4]; [18]
  MIC: 25 µg/mL

## CCCCCCCCOCC(O)CN.Cl (stereo not shown) [Compound 6, 3-octyloxy-2-hydroxy-1-aminopropane hydrochloride]
[1]; [11]
  MIC: 300 µg/mL
[1]; [12]
  MIC: 150 µg/mL
[2]; [13]
  MIC: 500 µg/mL
[2]; [14]
  MIC: 300 µg/mL
[3]; [15]
  MIC: > 250 µg/mL
[3]; [16]
  MIC: > 150 µg/mL
[4]; [17]
  MIC: 200 µg/mL
[4]; [18]
  MIC: 150 µg/mL

## CCCCCCCCCC(O)CN (stereo not shown) [Compound 7]
[1]; [11]
  MIC: 150 µg/mL (≈ 801 µM)
[1]; [12]
  MIC: 75 µg/mL (≈ 400 µM)
[2]; [13]
  MIC: 500 µg/mL (≈ 2670 µM)
[2]; [14]
  MIC: 200 µg/mL (≈ 1070 µM)
[3]; [15]
  MIC: 150 µg/mL (≈ 801 µM)
[3]; [16]
  MIC: 75 µg/mL (≈ 400 µM)
[4]; [17]
  MIC: 50 µg/mL (≈ 267 µM)
[4]; [18]
  MIC: 30 µg/mL (≈ 160 µM)

## CCCCCCCCCCCC(O)CN (stereo not shown) [Compound 8, 2-hydroxy-1-amino tridecane]
[1]; [11]
  MIC: 75 µg/mL (≈ 348 µM)
[1]; [12]
  MIC: 10 µg/mL (≈ 46.4 µM)
[2]; [13]
  MIC: > 1500 µg/mL
[2]; [14]
  MIC: > 1000 µg/mL
[3]; [15]
  MIC: 40 µg/mL (≈ 186 µM)
[3]; [16]
  MIC: 20 µg/mL (≈ 92.9 µM)
[4]; [17]
  MIC: 30 µg/mL (≈ 139 µM)
[4]; [18]
  MIC: 3 µg/mL (≈ 13.9 µM)

## CCCCCCCCCCCCCCOCC(O)CN (stereo not shown) [Compound 9, 3-tetradecyloxy-2-hydroxyamino-1-propane hydrochloride]
[5]
  solubility in water: soluble in water
[1]; [11]
  MIC: > 1000 µg/mL
[1]; [12]
  MIC: > 500 µg/mL
[2]; [13]
  MIC: 2500 µg/mL
[2]; [14]
  MIC: 1250 µg/mL
[3]; [15]
  MIC: 50 µg/mL
[3]; [16]
  MIC: 10 µg/mL
[4]; [17]
  MIC: 30 µg/mL
[4]; [18]
  MIC: 7 µg/mL

## CCCCCCCCCCCCCCCCCCOCC(O)CN.Cl (stereo not shown) [Compound 10, 3-octadecyloxy-2-hydroxy-1-aminopropane hydrochloride]
[1]; [11]
  MIC: > 1000 µg/mL
[1]; [12]
  MIC: > 500 µg/mL
[2]; [13]
  MIC: > 2500 µg/mL
[2]; [14]
  MIC: 1300 µg/mL
[3]; [15]
  MIC: > 500 µg/mL
[3]; [16]
  MIC: > 300 µg/mL
[4]; [17]
  MIC: > 500 µg/mL
[4]; [18]
  MIC: > 300 µg/mL

## COCC(O)CN (stereo not shown) [Compound 11]
[1]; [11]
  MIC: > 1000 µg/mL
[1]; [12]
  MIC: > 500 µg/mL
[2]; [13]
  MIC: > 2500 µg/mL
[2]; [14]
  MIC: > 1300 µg/mL
[3]; [15]
  MIC: > 500 µg/mL
[3]; [16]
  MIC: > 300 µg/mL
[4]; [17]
  MIC: > 500 µg/mL
[4]; [18]
  MIC: > 300 µg/mL

## CCOCC(O)CN.Cl (stereo not shown) [Compound 12, 3-ethoxy-2-hydroxy-1-aminopropane hydrochloride]
[1]; [11]
  MIC: > 1000 µg/mL
[1]; [12]
  MIC: > 500 µg/mL
[2]; [13]
  MIC: > 2500 µg/mL
[2]; [14]
  MIC: > 1300 µg/mL
[3]; [15]
  MIC: > 500 µg/mL
[3]; [16]
  MIC: > 300 µg/mL
[4]; [17]
  MIC: > 500 µg/mL
[4]; [18]
  MIC: > 300 µg/mL

## CCCCCCCCCCOCC(O)CN (stereo not shown) [Compound 13, 3-decyloxy-2-hydroxy-1-aminopropane]
[1]; [11]
  MIC: 250 µg/mL (≈ 1080 µM)
[1]; [12]
  MIC: 50 µg/mL (≈ 216 µM)
[2]; [13]
  MIC: 400 µg/mL (≈ 1730 µM)
[2]; [14]
  MIC: 150 µg/mL (≈ 648 µM)
[3]; [15]
  MIC: 80 µg/mL (≈ 346 µM)
[3]; [16]
  MIC: 40 µg/mL (≈ 173 µM)
[4]; [17]
  MIC: 40 µg/mL (≈ 173 µM)
[4]; [18]
  MIC: 20 µg/mL (≈ 86.4 µM)

## CCCCCCCCCCSCC(O)CN (stereo not shown) [Compound 14, 3-decanethio-2-hydroxy-1-aminopropane hydrochloride]
[5]; alcohol
  solubility in alcohol: soluble in alcohol
[1]; [11]
  MIC: 250 µg/mL
[1]; [12]
  MIC: 50 µg/mL
[2]; [13]
  MIC: 600 µg/mL
[2]; [14]
  MIC: 200 µg/mL
[3]; [15]
  MIC: 70 µg/mL
[3]; [16]
  MIC: 10 µg/mL
[4]; [17]
  MIC: 30 µg/mL
[4]; [18]
  MIC: 5 µg/mL

## benzalconium chloride [T, reference compound]
[6]; with 20% of serum
  MIC: 75 μg/cc
[6]; without serum
  MIC: 20 μg/cc
[1]; [19]
  MIC: 300 μg/cc
[1]; [20]
  MIC: 125 μg/cc
[1]; [21]
  M.I.C.: 200 μg/cc and 250 μg/cc and 300 μg/cc
[1]; [22]
  M.I.C.: 125 μg/cc and 150 μg/cc
[2]; [19]
  MIC: 850 μg/cc
[2]; [20]
  MIC: 600 μg/cc
[2]; [21]
  M.I.C.: 750 μg/cc and 850 μg/cc and 1200 μg/cc and 1000 μg/cc
[2]; [22]
  M.I.C.: 500 μg/cc and 600 μg/cc and 700 μg/cc
[7]; with 20% of serum
  MIC: 75 μg/cc
[7]; without serum
  MIC: 35 μg/cc
[8]; with 20% of serum
  MIC: 75 μg/cc
[8]; without serum
  MIC: 35 μg/cc
[9]; with 20% of serum
  MIC: 150 μg/cc
[9]; without serum
  MIC: 75 μg/cc
[10]; with 20% of serum
  MIC: 30 μg/cc
[10]; without serum
  MIC: 10 μg/cc
[3]; [19]
  MIC: 12 μg/cc
[3]; [20]
  MIC: 1.5 μg/cc
[3]; [21]
  M.I.C.: 10 μg/cc and 5 μg/cc
[3]; [22]
  M.I.C.: 1.5 μg/cc and 1 μg/cc
[4]; [19]
  MIC: 7.5 μg/cc
[4]; [20]
  MIC: 2.5 μg/cc
[4]; [21]
  M.I.C.: 2.5 μg/cc and 4 μg/cc
[4]; [22]
  M.I.C.: 1 μg/cc and 2 μg/cc and 1.5 μg/cc
